From ChEMBL document CHEMBL1201862, “PubChem BioAssay data set” (2004) come the findings set out here.

Activity calls are given as the source filed them.

Broadly, the Ki is the dissociation constant of the complex between target and ligand, obtained from inhibition or displacement.

Common to all, as to type: functional
In test [1] the target is T1, Serine/threonine-protein kinase D3 (Homo sapiens, UniProt O94806).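 Also: determined within a kinase panel screen, with PRKCN as the panel member.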
T1 sequence (O94806 whole entry): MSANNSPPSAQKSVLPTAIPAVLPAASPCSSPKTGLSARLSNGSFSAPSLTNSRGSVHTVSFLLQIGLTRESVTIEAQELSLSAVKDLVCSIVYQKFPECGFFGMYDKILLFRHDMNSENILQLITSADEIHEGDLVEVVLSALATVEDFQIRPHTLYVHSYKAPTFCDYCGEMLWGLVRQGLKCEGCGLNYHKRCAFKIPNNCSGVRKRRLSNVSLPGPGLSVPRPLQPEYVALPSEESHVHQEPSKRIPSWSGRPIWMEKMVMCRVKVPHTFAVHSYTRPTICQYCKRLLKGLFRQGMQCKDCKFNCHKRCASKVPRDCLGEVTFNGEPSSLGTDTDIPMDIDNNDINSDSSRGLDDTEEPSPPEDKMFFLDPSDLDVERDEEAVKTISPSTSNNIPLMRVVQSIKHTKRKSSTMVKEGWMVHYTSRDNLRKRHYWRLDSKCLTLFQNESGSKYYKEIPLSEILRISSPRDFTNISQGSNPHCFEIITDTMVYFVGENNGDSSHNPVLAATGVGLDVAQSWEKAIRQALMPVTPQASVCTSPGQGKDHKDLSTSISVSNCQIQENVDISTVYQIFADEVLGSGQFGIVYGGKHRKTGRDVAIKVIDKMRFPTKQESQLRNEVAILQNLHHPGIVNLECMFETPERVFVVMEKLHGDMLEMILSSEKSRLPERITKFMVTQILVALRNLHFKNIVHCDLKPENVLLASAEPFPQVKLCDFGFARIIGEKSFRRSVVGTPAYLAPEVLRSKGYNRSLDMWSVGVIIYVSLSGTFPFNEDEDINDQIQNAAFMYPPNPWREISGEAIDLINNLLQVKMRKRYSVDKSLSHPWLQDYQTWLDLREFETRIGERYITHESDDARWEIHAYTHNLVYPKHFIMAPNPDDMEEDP

Test [2] deals with Platelet-derived growth factor receptor alpha (Homo sapiens, UniProt P16234). Put plainly: Navigating the Kinome. Panel member name: PDGFRA.
Test [3] deals with T2, Tyrosine-protein kinase receptor TYRO3 (Homo sapiens, UniProt Q06418).
T2 sequence (Q06418 whole entry): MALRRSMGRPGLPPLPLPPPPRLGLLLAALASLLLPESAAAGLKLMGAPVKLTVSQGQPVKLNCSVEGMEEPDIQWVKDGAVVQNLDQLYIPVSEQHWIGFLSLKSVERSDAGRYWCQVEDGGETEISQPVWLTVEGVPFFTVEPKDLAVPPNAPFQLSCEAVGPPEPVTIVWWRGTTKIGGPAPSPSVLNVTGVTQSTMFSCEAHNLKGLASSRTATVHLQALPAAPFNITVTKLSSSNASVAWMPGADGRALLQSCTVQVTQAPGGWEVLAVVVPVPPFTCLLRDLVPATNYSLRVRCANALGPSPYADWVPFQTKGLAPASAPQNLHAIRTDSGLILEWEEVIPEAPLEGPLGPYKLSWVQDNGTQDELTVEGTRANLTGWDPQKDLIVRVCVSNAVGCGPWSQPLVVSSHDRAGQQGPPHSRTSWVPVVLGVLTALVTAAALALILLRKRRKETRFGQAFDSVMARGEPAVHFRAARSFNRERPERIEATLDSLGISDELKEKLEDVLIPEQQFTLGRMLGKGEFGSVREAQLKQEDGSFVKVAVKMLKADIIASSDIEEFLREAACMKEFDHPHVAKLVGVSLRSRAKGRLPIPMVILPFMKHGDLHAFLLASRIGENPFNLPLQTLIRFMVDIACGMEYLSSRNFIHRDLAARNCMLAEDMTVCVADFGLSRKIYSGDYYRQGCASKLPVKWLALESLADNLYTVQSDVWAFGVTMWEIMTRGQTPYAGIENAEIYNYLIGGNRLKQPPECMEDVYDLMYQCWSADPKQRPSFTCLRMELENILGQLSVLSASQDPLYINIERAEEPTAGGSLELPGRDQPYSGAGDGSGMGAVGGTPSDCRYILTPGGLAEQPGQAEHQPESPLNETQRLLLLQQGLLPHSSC

The target of test [4] is Dual specificity mitogen-activated protein kinase kinase 2 (Homo sapiens, UniProt P36507). Put plainly: Navigating the Kinome. Panel member name: MAP2K2.
Dual specificity mitogen-activated protein kinase kinase 2, sequence (P36507 whole entry): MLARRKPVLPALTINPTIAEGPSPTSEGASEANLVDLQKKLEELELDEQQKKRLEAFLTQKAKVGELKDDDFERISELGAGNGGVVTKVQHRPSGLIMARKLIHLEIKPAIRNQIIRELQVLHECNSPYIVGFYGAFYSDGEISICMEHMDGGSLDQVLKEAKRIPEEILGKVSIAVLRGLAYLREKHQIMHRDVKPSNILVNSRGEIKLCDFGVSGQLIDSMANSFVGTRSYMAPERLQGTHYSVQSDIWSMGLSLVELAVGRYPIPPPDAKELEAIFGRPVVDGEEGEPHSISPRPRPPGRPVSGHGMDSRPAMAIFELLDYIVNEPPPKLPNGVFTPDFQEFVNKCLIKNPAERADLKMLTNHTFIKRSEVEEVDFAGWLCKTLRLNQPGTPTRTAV
Test [5] concerns the target Cyclin-dependent kinase 8 (Homo sapiens, UniProt P49336). Put plainly: Navigating the Kinome. Panel member name: CDK8.
Test [6] addresses Tyrosine-protein kinase Fyn (Homo sapiens, UniProt P06241).
Test [7] deals with Tyrosine-protein kinase ABL1 (Homo sapiens, UniProt P00519).
The target in test [8] is T3, Inhibitor of nuclear factor kappa-B kinase subunit epsilon (Homo sapiens, UniProt Q14164).
T3 sequence (Q14164 whole entry): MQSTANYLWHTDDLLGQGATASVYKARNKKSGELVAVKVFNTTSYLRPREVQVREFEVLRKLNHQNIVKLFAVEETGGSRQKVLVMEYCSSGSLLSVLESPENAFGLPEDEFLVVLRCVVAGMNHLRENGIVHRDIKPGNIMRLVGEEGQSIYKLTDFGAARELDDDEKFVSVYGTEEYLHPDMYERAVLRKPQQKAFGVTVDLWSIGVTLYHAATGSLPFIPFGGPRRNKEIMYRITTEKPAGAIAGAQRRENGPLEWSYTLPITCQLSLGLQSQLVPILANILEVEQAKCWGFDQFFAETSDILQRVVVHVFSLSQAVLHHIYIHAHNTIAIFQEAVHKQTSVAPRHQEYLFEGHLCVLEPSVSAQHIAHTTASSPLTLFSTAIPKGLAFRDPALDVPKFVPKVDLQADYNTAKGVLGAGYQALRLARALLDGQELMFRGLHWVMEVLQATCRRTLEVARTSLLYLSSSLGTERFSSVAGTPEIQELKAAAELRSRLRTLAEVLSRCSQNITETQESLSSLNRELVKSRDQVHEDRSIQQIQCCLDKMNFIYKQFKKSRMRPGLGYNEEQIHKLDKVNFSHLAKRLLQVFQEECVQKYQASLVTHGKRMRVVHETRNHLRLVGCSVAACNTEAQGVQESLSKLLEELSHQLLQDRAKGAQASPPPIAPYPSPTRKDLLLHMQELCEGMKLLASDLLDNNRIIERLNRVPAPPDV
Put plainly: Navigating the Kinome. Panel member name: IKBKE.

Test [9] deals with Leucine-rich repeat serine/threonine-protein kinase 2 (Homo sapiens, UniProt Q5S007).
Leucine-rich repeat serine/threonine-protein kinase 2, sequence (Q5S007 whole entry): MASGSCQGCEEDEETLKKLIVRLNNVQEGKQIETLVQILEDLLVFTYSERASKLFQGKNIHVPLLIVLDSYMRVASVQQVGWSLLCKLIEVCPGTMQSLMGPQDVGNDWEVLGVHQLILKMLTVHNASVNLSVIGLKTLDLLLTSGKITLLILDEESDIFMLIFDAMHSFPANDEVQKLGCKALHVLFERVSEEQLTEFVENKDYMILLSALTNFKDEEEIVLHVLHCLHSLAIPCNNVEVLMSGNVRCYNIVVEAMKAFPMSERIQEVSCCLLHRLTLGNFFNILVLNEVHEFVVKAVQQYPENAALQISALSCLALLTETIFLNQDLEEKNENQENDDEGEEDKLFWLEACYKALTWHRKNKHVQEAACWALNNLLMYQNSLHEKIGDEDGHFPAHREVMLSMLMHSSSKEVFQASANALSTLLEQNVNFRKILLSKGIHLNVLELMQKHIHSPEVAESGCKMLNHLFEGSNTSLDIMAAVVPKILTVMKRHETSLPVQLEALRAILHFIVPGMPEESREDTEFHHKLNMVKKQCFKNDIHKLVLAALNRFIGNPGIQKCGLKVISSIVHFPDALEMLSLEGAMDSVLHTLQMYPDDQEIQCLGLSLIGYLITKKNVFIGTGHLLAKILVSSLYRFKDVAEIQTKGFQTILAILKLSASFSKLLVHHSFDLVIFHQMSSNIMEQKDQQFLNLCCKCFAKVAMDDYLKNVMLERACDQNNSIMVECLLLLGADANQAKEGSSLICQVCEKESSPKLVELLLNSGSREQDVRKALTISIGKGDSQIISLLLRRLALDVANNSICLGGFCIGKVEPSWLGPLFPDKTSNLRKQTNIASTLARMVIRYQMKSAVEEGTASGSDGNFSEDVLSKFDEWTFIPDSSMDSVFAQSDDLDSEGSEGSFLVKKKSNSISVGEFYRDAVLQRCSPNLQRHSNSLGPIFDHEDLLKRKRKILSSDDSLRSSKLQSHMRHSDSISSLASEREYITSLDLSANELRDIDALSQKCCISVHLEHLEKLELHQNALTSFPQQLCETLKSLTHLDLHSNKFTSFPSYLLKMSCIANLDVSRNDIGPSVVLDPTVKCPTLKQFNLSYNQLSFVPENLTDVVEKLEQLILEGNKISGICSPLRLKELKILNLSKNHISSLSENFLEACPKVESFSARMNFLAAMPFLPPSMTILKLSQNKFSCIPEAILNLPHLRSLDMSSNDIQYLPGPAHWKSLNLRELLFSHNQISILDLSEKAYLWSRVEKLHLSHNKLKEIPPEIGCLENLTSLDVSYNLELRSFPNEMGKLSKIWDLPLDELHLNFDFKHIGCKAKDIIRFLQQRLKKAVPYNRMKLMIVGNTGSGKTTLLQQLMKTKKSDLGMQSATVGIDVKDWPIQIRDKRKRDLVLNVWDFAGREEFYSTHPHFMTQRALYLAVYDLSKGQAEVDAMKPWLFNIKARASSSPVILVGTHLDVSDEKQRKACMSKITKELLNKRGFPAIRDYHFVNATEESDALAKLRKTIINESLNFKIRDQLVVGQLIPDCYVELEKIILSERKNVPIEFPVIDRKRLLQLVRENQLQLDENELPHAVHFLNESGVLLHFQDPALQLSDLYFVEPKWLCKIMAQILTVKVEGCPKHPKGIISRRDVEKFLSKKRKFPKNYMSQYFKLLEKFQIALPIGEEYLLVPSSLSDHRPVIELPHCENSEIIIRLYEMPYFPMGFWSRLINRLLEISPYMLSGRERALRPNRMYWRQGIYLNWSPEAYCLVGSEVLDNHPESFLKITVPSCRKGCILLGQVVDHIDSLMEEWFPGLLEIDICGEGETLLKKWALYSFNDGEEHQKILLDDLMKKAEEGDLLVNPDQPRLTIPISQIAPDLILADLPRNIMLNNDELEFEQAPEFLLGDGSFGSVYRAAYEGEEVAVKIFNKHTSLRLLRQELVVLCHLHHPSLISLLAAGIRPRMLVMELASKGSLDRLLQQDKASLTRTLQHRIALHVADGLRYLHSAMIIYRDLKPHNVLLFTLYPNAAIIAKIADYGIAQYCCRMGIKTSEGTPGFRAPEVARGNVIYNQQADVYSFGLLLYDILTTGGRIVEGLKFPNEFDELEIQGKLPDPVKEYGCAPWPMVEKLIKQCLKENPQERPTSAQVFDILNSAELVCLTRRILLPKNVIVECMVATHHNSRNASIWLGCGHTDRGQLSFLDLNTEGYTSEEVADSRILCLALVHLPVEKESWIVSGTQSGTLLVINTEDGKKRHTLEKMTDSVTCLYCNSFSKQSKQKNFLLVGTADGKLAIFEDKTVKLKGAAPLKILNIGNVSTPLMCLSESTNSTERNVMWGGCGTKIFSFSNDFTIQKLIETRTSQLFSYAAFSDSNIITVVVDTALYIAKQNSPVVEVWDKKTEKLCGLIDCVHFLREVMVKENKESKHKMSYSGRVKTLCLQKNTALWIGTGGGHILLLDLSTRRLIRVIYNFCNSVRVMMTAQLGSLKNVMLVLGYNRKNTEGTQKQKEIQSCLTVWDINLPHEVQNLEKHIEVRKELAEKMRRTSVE
Test [10] deals with Cyclin-dependent kinase 5 (Homo sapiens, UniProt Q00535).
Cyclin-dependent kinase 5, sequence (Q00535 whole entry): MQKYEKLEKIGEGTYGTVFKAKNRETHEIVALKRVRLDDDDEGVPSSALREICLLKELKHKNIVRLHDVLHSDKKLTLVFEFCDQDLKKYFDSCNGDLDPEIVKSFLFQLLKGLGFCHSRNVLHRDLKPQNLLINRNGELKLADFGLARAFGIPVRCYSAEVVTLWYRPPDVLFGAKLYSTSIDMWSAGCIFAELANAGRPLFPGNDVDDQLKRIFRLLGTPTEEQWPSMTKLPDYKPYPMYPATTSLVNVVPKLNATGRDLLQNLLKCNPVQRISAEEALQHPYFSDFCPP
Test [11] concerns the target BDNF/NT-3 growth factors receptor (Homo sapiens, UniProt Q16620).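 Also: NTRK2 measured as one member of a broad kinome-wide kinase profiling panel.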
Test [12] deals with Tyrosine-protein kinase BTK (Homo sapiens, UniProt Q06187).

BDNF/NT-3 growth factors receptor, sequence (Q16620 whole entry): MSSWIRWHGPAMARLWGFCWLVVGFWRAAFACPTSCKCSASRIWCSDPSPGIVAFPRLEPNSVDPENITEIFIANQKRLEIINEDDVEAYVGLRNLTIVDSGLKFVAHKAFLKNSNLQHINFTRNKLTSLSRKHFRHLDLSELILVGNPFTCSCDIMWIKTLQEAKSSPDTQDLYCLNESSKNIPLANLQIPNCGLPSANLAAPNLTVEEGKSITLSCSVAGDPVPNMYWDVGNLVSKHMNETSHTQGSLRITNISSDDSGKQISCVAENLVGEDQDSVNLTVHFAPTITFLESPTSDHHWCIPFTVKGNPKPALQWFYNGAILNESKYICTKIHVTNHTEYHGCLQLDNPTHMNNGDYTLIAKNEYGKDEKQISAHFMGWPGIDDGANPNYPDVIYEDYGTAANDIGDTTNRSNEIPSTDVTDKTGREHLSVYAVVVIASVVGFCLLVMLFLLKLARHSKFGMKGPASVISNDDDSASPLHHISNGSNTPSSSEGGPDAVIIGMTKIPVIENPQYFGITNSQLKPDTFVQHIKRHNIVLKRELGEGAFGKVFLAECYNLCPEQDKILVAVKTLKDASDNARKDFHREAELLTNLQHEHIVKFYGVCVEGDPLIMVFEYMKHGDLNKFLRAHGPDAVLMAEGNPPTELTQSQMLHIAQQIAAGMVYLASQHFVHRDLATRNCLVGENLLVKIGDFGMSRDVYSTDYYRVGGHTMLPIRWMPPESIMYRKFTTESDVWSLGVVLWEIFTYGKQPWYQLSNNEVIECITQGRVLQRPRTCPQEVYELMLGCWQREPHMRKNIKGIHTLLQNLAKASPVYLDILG
Tyrosine-protein kinase Fyn, sequence (P06241 whole entry): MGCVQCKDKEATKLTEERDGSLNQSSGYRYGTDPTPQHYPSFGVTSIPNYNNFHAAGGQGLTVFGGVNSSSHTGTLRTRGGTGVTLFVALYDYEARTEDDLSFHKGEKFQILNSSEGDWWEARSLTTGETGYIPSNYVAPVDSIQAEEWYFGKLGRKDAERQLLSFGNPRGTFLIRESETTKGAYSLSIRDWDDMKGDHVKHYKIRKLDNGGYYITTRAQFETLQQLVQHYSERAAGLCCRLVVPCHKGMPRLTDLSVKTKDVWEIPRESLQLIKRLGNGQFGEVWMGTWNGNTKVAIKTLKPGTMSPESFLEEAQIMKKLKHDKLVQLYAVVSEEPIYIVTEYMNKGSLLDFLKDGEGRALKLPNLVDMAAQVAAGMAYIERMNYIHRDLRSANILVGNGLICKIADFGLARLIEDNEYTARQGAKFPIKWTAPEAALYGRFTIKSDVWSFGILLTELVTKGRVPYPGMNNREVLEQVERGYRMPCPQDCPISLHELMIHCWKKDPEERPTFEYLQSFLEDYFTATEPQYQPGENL
Cyclin-dependent kinase 8, sequence (P49336 whole entry): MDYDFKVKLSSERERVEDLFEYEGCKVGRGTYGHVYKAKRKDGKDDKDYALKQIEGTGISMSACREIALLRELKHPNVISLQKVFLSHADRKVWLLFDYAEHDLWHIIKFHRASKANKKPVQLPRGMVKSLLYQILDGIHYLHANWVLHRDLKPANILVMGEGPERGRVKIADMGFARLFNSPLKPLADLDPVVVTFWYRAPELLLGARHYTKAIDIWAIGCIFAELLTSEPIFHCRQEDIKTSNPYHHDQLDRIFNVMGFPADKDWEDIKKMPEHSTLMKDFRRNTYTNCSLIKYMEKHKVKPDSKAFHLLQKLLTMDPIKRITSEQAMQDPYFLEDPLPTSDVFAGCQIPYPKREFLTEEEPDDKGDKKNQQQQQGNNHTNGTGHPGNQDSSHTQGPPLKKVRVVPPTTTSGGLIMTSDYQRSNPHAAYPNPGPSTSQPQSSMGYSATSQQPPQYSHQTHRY

With `O=c1[nH]c2cc(Br)cnc2[nH]1`, the inhibition constant Ki in [1] was 20 µM (active); in test [2], 5.01 µM (active); in test [3], 31.6 µM (active); in test [4], 50.1 µM (active); in [5], 7.94 µM (active); in [6], 100 µM (active). The Ki in test [7] was 15.8 µM (active); in test [8], 39.8 µM (active); in test [9], 3.98 µM (active); in test [10], 0.0501 µM (active).
In the case of `O=C(Nc1cccc(C(F)(F)F)n1)Nc1ccnc2cc(OC(F)F)ccc12`, the Ki is > 3.98 µM (inactive) in test [1]; > 2.51 µM (inactive) in test [2]; > 3.16 µM (inactive) in test [3]; > 3.98 µM (inactive) in test [4]; > 3.98 µM (inactive) in [5]; > 6.31 µM (inactive) in test [6]. For the same compound, the Ki in [11] was > 3.98 µM (inactive); in test [7] it was > 3.16 µM (inactive); in [8], > 3.16 µM (inactive); in test [12] it was > 6.31 µM (inactive); in test [9], > 2.51 µM (inactive); in [10], > 3.16 µM (inactive).
For the compound `O=C(Nc1cccc(C(F)(F)F)n1)Nc1ccnc2cc(Cl)ccc12`, the Ki was > 3.98 µM (inactive) in test [1]; > 2.51 µM (inactive) in test [2]; > 3.16 µM (inactive) in [3]; > 3.98 µM (inactive) in [4]; > 3.98 µM (inactive) in test [5]; > 6.31 µM (inactive) in test [6]. Further, the Ki is > 3.98 µM (inactive) in [11]; 3.98 µM (active) in [7]; > 3.16 µM (inactive) in [8]; > 6.31 µM (inactive) in test [12]; > 2.51 µM (inactive) in test [9]; > 3.16 µM (inactive) in test [10].
As to `CCC1CC(NS(=O)(=O)C2CC2)CC1c1ncc2cnc3[nH]ccc3n12` (stereo not given), the Ki in test [1] is > 3.98 µM (inactive); in test [2], > 2.51 µM (inactive); in test [3], > 2 µM (inactive); in test [4], > 3.98 µM (inactive); in test [5] it was > 3.16 µM (inactive); in [6] it was > 6.31 µM (inactive). Besides, the Ki in [11] was > 3.98 µM (inactive); in [8], > 3.16 µM (inactive); in test [12], > 6.31 µM (inactive); in test [9], 0.1 µM (active); in test [10], > 3.16 µM (inactive).
